{"source": "patent US20060281670A1", "about": "“Compositions and methods for modulating angiogenesis” (Wisconsin Alumni Research Foundation (WARF), priority 2005, published 2006)", "key": {"[1]": {"tested_on": "Yolk sac endothelial cells (YSECs)", "conditions": "for rescue of tube formation in IBMX+NK-B treated cells: 100 ng/ml mouse VEGF164 or 30 ng/ml mouse bFGF", "method": "(§1) Vascular network assembly was assessed by measuring the formation of capillary-like structures by endothelial cells on Matrigel (BD Biosciences, San Jose, Calif.). Matrigel was diluted 1:1 with supplement-free M200 medium, poured in 24-well plates, and allowed to solidify at 37° C. Subconfluent endothelial cells were harvested and preincubated under different experimental conditions (YSECs, 1 h; HUVECs, HAECs, and human microvascular endothelial cells (HMVECs), 2 h in supplement-free M200 medium in microfuge tubes. An equal volume of supplemented medium containing the indicated reagents was added. Cells were plated on Matrigel (1.5×10^5 cells/well) and incubated at 37° C. Vascular network assembly was measured as a function of time, and digital pictures were captured."}, "[2]": {"tested_on": "chorioallantoic membrane (CAM)", "experiment": "Chick chorioallantoic membrane assay", "type": "in vivo, chicken", "conditions": "L733060 5 μM, SB222200 2 μM, alone or combined; day 7 embryos, 48 h", "procedure": "Fertilized chicken eggs were incubated at 39° C. with 90% humidity. On embryonic day 7, a small hole was drilled at the end of the egg that contains the air sac to lower the embryo. A second hole was made above the chorioallantoic membrane (CAM), and 100 μl of a 1.5% solution of methylcellulose (Stem Cell Technologies, Vancouver, BC) containing either FGF2 (500 ng) or VEGF (200 ng) and vehicle, IBMX (100 μg), NK-B (40 μg)/IBMX, or mutant NK-B (40 μg)/IBMX were applied to the CAM. A solution of penicillin/streptomycin was added, and the eggs were sealed with transparent tape. Vasculature was analyzed after 48 h, and digital images were captured at 40× magnification."}, "[3]": {"tested_on": "HUVECs", "experiment": "Vascular network assembly assay on Matrigel", "type": "cell-based, human", "method": "as §1"}, "[4]": {"tested_on": "human aortic endothelial cells (HAECs)", "experiment": "Vascular network assembly assay on Matrigel", "type": "cell-based", "conditions": "NK-B, U46619 (2 μM) or both, 2 h, 16 h on Matrigel", "method": "as §1"}, "[5]": {"tested_on": "YSECs", "experiment": "cAMP assay", "type": "cell-based, mouse", "conditions": "supplement-free M200 medium", "procedure": "Cells were cultured in 6-well plates (2×10^5 cells/well), washed with supplement-free M200 medium and treated with indicated reagents at 37° C. The reactions were terminated by aspiration of the medium. Cells were washed with PBS and lysed in 500 μl of 0.1 N HCl containing 0.5% Triton X-100. cAMP was assayed in cell lysates (100 μl) using a direct cAMP enzyme-linked immunosorbent assay (Assay Designs, Inc., Ann Arbor, Mich.)."}, "[6]": {"tested_on": "YSECs", "experiment": "Calcium imaging (Ca+2 oscillations)", "type": "cell-based, mouse", "conditions": "YSECs on Matrigel, supplemented medium", "procedure": "Cells were incubated for ˜30 min in 4 μM fluo-4/AM (Molecular Probes, Carlsbad, Calif.) in supplement-free M200 medium at 37° C., trypsinized, plated on Matrigel with indicated reagents, and allowed to adhere for 10 min. Time-lapse video microscopy with an Olympus AX70 laser scanning confocal microscope was used to measure intracellular Ca^+2 as described previously (Robles et al., 2003). An argon laser at 488 nm was used to excite Fluo-4, and the emitted light was detected at wavelengths>510 nm. Images were acquired at 15 s intervals and analyzed using Image J (Image Processing and Analysis in JAVA, Nat'l Inst. Health). When indicated, the fluorescence intensity in the region of interest (F) was normalized by dividing the Ca+2 signal by the fluorescence intensity of the resting cell at time 0 (F0)."}, "[7]": {"tested_on": "calreticulin in YSECs", "experiment": "Calreticulin 2D gel electrophoresis and Western blot", "type": "cell-based, mouse", "conditions": "2 μM ionomycin, 1 h, supplement-free M200 medium", "procedure": "[…] Cells were processed and proteins analyzed as described above in Example 2.\nCells were harvested, washed twice with ice-cold PBS, and lysed in lysis buffer containing 10 mM Tris (pH 7.4), 0.3% SDS, 100 μg/mL Ribonuclease A (Sigma), 200 μg/mL DNase I (Sigma), 20 μg/mL leupeptin (Sigma), 6 μg/mL E-64 (Sigma), 1 mM EDTA (Calbiochem), and 100 μg/mL benzamidine (Sigma). Cells were incubated on ice for 30 min, an equal volume of loading buffer containing 60 mM Tris (pH 6.8), 5% SDS, 10% glycerol was added, and samples were boiled for 5 min. 2D gel electrophoresis was conducted using pH 3.5-10 ampholines, and proteins were detected by Coomassie Blue staining. […]\nThe following antibodies were used for Western blots: Anti-phospho-FAK (Tyr-397) (Biosource, 44-624G); anti-FAK, anti-phospho-Akt (Ser 473), anti-Akt, anti-phospho-p44/42 MAP kinase (Thr 202/Tyr 204), anti-p44/42 MAP kinase antibodies (Cell Signaling Technology); anti-calreticulin (Upstate, 06-661); anti-α-tubulin (Calbiochem); anti Flt-1 (Santa Cruz Biotech, C-17); anti-Flk-1 (Cell Signaling Technologies, 2479). […] Extracts were resolved on SDS polyacrylamide gels, transferred to Immobilon P membranes (Millipore, Billerica, Mass.), and analyzed by Western blotting. Proteins were detected by chemiluminescence using ECL-Plus (Amersham Biosciences Piscataway, N.J.)."}, "[8]": {"tested_on": "Flt-1 and Flk-1 (VEGF receptors) in YSECs", "experiment": "Gene expression analysis by real-time RT-PCR", "type": "cell-based, mouse", "conditions": "for rescue of Flt-1 and Flk-1 expression and cell signaling: NK-B/IBMX-treated YSECs, growth factor 100 ng/ml", "procedure": "Real-time RT-PCR was conducted Total RNA was purified with Trizol (Invitrogen). cDNA was prepared by annealing RNA (1 μg) with 250 ng of a 1:5 mixture of random and oligo(dT) primers (Promega) at 68° C. for 10 min, followed by incubation with Moloney Murine Leukemia Virus reverse transcriptase (Invitrogen) with 10 mM dithiothreitol, RNasin (Promega), and 0.5 mM dNTPs at 42° C. for 1 h. Reactions were diluted to a final volume of 100 μl and subjected to heat-inactivation at 98° C. for 10 min. Reactions (25 μl) contained 2.5 μl of cDNA, 12.5 μl of SYBR Green Master Mix (Applied Biosystems), and appropriate primers. Product accumulation was monitored by SYBR Green fluorescence. Control reactions lacking RT yielded little or no signals. The relative expression levels were determined from a standard curve of serial dilutions of cDNA samples from untreated control cells, and measurements were conducted under conditions of linearity.\nReal time RT-PCR primers were designed using PRIMER EXPRESS 1.0 (PE Applied Biosystems) to amplify 50-150 bp amplicons and were based on GenBank Ensembl sequences."}}, "data": [{"molecule": "CC(C)Cn1c(=O)n(C)c(=O)c2[nH]cnc21", "note": "[IBMX, 3-Isobutyl-1-methylxanthine]", "values": [{"measurement": "vascular network assembly (capillary like tube formation)", "setting": "[1]; 250 μM IBMX, 10 μM forskolin, 100 μM NK-B, 20 h, 3 experiments", "value": "has little effect on vascular network assembly"}]}, {"molecule": "Cl.FC(F)(F)c1cc(CO[C@H]2CCCN[C@H]2c2ccccc2)cc(C(F)(F)F)c1", "note": "[L733060]", "values": [{"measurement": "microvessel density of CAM", "setting": "[2]", "value": "much higher"}]}, {"molecule": "CC[C@H](NC(=O)c1c(C)c(-c2ccccc2)nc2ccccc12)c1ccccc1", "note": "[SB222200, (S)-3 methyl-2-phenyl-N-(1-phenylpropyl)-4-quinilinecarboxamide]", "values": [{"measurement": "microvessel density of CAM", "setting": "[2]", "value": "much higher"}]}, {"molecule": "CCCCC[C@H](O)/C=C/[C@@H]1[C@@H](C/C=C\\CCCC(=O)O)[C@H]2CO[C@@H]1C2", "note": "[U46619]", "values": [{"measurement": "vascular network assembly", "setting": "[3]; NK-B, U46619 (2 μM) or both, 2 h, 16 h on Matrigel", "value": "had little effect"}, {"measurement": "vascular network assembly", "setting": "[4]", "value": "had little effect"}, {"measurement": "cAMP", "setting": "[5]", "value": "decrease the amount of cAMP"}, {"measurement": "Ca+2 oscillations", "setting": "[6]", "value": "decreasing the amount of Ca^2+ oscillations"}, {"measurement": "vascular network assembly", "setting": "[1]; NK-B, U46619 (2 μM) or both, 1 h, 16 h on Matrigel", "value": "had little effect"}]}, {"molecule": "C[C@H](CCC(=O)O)C[C@H](C)C[C@H](C)C(=O)/C=C(\\O)[C@H](C)C[C@H](C)C/C=C/[C@@H](C)[C@@H](O)[C@@H](C)[C@@H](O)C[C@@H]1CC[C@@](C)([C@H]2CC[C@@](C)([C@@H](C)O)O2)O1", "note": "[ionomycin]", "values": [{"measurement": "calreticulin/alpha-tubulin ratio increase", "setting": "[7]", "value": "~2", "unit": "fold"}]}, {"molecule": "FGF2: fibroblast growth factor-2 (bovine FGF2 from R & D systems; also called mouse FGF2/bFGF)", "values": [{"measurement": "rescue of Flt-1 and Flk-1 expression and cell signaling", "setting": "[8]", "value": "but not FGF2, rescues Flt-1 and Flk-1 expression and cell signaling"}, {"measurement": "FGFR1 transcription", "setting": "[8]; YSECs, 100 ng/ml FGF2 with or without NK-B", "value": "increased"}, {"measurement": "rescue of tube formation in IBMX+NK-B treated cells", "setting": "[1]", "value": "but not bFGF Rescues the NK-B Effect"}]}, {"molecule": "VEGF", "values": [{"measurement": "rescue of Flt-1 and Flk-1 expression and cell signaling", "setting": "[8]", "value": "rescues Flt-1 and Flk-1 expression and cell signaling"}, {"measurement": "rescue of tube formation in IBMX+NK-B treated cells", "setting": "[1]", "value": "can form capillary-like tubes but in a slower kinetics"}]}, {"molecule": "calreticulin: E. coli overexpressed and purified recombinant calreticulin, anti-angiogenic protein (protein, UniProt P27797 18-417, looked up) Calreticulin: EPAVYFKEQFLDGDGWTSRWIESKHKSDFGKFVLSSGKFYGDEEKDKGLQTSQDARFYALSASFEPFSNKGQTLVVQFTVKHEQNIDCGGGYVKLFPNSLDQTDMHGDSEYNIMFGPDICGPGTKKVHVIFNYKGKNVLINKDIRCKDDEFTHLYTLIVRPDNTYEVKIDNSQVESGSLEDDWDFLPPKKIKDPDASKPEDWDERAKIDDPTDSKPEDWDKPEHIPDPDAKKPEDWDEEMDGEWEPPVIQNPEYKGEWKPRQIDNPDYKGTWIHPEIDNPEYSPDPSIYAYDNFGVLGLDLWQVKSGTIFDNFLITNDEAYAEEFGNETWGVTKAAEKQMKDKQDEEQRLKEEEEDKKRKEEEEAEDKEDDEDKDEDEEDEEDKEEDEEEDVPGQAKDEL", "values": [{"measurement": "vascular network assembly", "setting": "[3]; calreticulin 13 μg/ml, vasostatin 5 μg/ml, 1 h", "value": "inhibit YSEC and HUVEC vascular network assembly"}, {"measurement": "Flt-1 and Flk-1 transcription", "setting": "[8]; YSECs, forskolin (10 μM)/IBMX, calreticulin (13 μg/ml), vasostatin (5 μg/ml), 1, 2 or 5 h on Matrigel", "value": "failed to affect Flt-1 and Flk-1 transcription"}]}]}
